The test system of assay [1] is NLRP3 inflammasome (IL-1β production in THP-1 cells). The experiment in a line: IL-1β TR-FRET Assay (percentage of inhibition at 300 nM, 6 μM or 10 μM). To be noted: Homo sapiens, LPS priming, ATP activation; for inhibition at 0.3 µM: THP-1, 300 nM, read-out: IL-1β inhibitory rate at 300 nM (%); for inhibition at 10 µM: THP-1, 10 μM, read-out: IL-1β inhibitory rate at 10 μM (%). Type of assay: cell-based, human. Summed up: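 Percent inhibition of IL-1β used DMSO wells as 0% and 3 μM MCC-950 wells as full inhibition, with supernatant read by HTRF. Beforehand, IFN-γ-differentiated (25 ng/mL, 24 h), LPS-primed (50 ng/mL, 24 h) THP-1 cells received compound 30 min before inflammasome activation by 20 mM ATP for 2 h.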

Assay [2] concerns TNF-α (NF-κB pathway, THP-1 cells). Nature of the assay: TNF-α Assay (IC50). Type of assay: cell-based, human. The note with it: Homo sapiens, 600 ng/mL LPS, 3 hours. Summed up: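 Supernatant TNF-α quantified by ELISA after 3 h stimulation with 600 ng/mL LPS at 37 °C, following 30 min compound preincubation. Cells: IFN-differentiated (25 ng/mL, 24 h) THP-1 macrophages, 40,000/well, serum-free. IC50 by sigmoidal fit of % inhibition, with TPCA-1 as 100% control.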

Among the data in patent US20260297092A1, “PYRAZOLOPYRIMIDINE DERIVATIVES AS INHIBITORS OF NLRP3” (Takeda Pharmaceutical Company Limited, priority 2023, published 2026) are inhibition and IC50 values, retold here.

pIC50: −log10 of the molar value.

In the case of `Cc1ccc(-n2cc3c(=O)[nH]c(-c4ccncn4)nc3n2)c(C)c1` [Example 84, 2-(2,4-dimethylphenyl)-6-(pyrimidin-4-yl)-2,5-dihydro-4H-pyrazolo[3,4-d]pyrimidin-4-one], the inhibition at 0.3 µM in assay [1] came out at 97%. Also, the negative logarithm of the IC50 (pIC50) in assay [2] was less than 4.52.
Consider `COC(C)(C)c1nc2nn(-c3c(C)cc(C)cc3O)cc2c(=O)[nH]1` [Example 85, 2-(2-hydroxy-4,6-dimethylphenyl)-6-(2-methoxypropan-2-yl)-2,5-dihydro-4H-pyrazolo[3,4-d]pyrimidin-4-one], for which, in assay [1], the inhibition at 0.3 µM turned out to be 92%. Moreover, the negative logarithm of the IC50 (pIC50) in assay [2] was less than 4.52.
For `Cc1ccc(-n2cc3c(=O)[nH]c(OCC(C)(F)F)nc3n2)c(O)c1` [Example 86, 6-(2,2-difluoropropoxy)-2-(2-hydroxy-4-methylphenyl)-2,5-dihydro-4H-pyrazolo[3,4-d]pyrimidin-4-one], in that order: 85% and less than 4.52.
For `Cc1ccc(-n2cc3c(=O)[nH]c(OC4CCC4)nc3n2)c(C)c1` [Example 87, 6-(cyclobutyloxy)-2-(2,4-dimethylphenyl)-2,5-dihydro-4H-pyrazolo[3,4-d]pyrimidin-4-one], in that order: 97% and less than 4.52.
For `Cc1cc(C)c(-n2cc3c(=O)[nH]c(C4CN(C)CCO4)nc3n2)c(O)c1` (stereo not drawn) [Example 88, 2-(2-hydroxy-4,6-dimethylphenyl)-6-(4-methylmorpholin-2-yl)-2,5-dihydro-4H-pyrazolo[3,4-d]pyrimidin-4-one], in that order: 86% and less than 4.52.
`Cc1cc(C)c(-n2cc3c(=O)[nH]c(C4(C)CCCCO4)nc3n2)c(O)c1` (stereo not drawn) [Example 90, 2-(2-hydroxy-4,6-dimethylphenyl)-6-(2-methyloxan-2-yl)-2,5-dihydro-4H-pyrazolo[3,4-d]pyrimidin-4-one]: the inhibition at 0.3 µM in assay [1] was determined as 85%. Also, the negative-log IC50 (pIC50) in assay [2] was less than 4.52.
Taken in the same sequence, the figures for `Cc1ccc(-n2nc3nc(OCC(C)(F)F)[nH]c(=O)c3c2C)c(O)c1` [Example 91, 6-(2,2-difluoropropoxy)-2-(2-hydroxy-4-methylphenyl)-3-methyl-2,5-dihydro-4H-pyrazolo[3,4-d]pyrimidin-4-one] were 76% and less than 4.52.
For `CCOc1nc2nn(-c3c(F)cc(C)c(F)c3C)cc2c(=O)[nH]1` [Example 92, 2-(3,6-difluoro-2,4-dimethylphenyl)-6-ethoxy-2,5-dihydro-4H-pyrazolo[3,4-d]pyrimidin-4-one], in that order: 82% and less than 4.52.
As to `CCOc1nc2nn(-c3c(F)cc(C)cc3OC)cc2c(=O)[nH]1` [Example 93, 6-ethoxy-2-(2-fluoro-6-methoxy-4-methylphenyl)-2,5-dihydro-4H-pyrazolo[3,4-d]pyrimidin-4-one], the inhibition at 0.3 µM in assay [1] amounted to 80%. In assay [2], this compound gave a negative-log IC50 (pIC50) of less than 4.52.
For `Cc1cc(C)c(-n2cc3c(=O)[nH]c(C(F)F)nc3n2)c(O)c1` [Example 94, 6-(difluoromethyl)-2-(2-hydroxy-4,6-dimethylphenyl)-2,5-dihydro-4H-pyrazolo[3,4-d]pyrimidin-4-one], in that order: 83% and less than 4.52.
Taken in the same sequence, the figures for `CCOc1nc2nn(-c3c(OCC)cc(C(F)(F)F)cc3C(F)F)cc2c(=O)[nH]1` [Example 95, 2-[2-(difluoromethyl)-6-ethoxy-4-(trifluoromethyl)phenyl]-6-ethoxy-2,5-dihydro-4H-pyrazolo[3,4-d]pyrimidin-4-one] were 72% and less than 4.52.
`CCOc1nc2nn(-c3c(C)cc(C)c(F)c3F)cc2c(=O)[nH]1` [Example 96, 2-(2,3-difluoro-4,6-dimethylphenyl)-6-ethoxy-2,5-dihydro-4H-pyrazolo[3,4-d]pyrimidin-4-one]: the inhibition at 0.3 µM in assay [1] was determined as 55%. The compound also gave a pIC50 in assay [2] of less than 4.52.
For `CCOc1nc2nn(-c3c(Br)cc(C)c(F)c3F)cc2c(=O)[nH]1` [Example 97, 2-(6-bromo-2,3-difluoro-4-methylphenyl)-6-ethoxy-2,5-dihydro-4H-pyrazolo[3,4-d]pyrimidin-4-one], in that order: 66% and less than 4.52.
For `CCOc1nc2nn(-c3ccc(C)cc3OCC(F)F)cc2c(=O)[nH]1` [Example 98, 2-[2-(2,2-difluoroethoxy)-4-methylphenyl]-6-ethoxy-2,5-dihydro-4H-pyrazolo[3,4-d]pyrimidin-4-one], in that order: 44% and less than 4.52.
Turning to `Cc1ccc(-n2cc3c(=O)[nH]c(Oc4ccccc4)nc3n2)c(C)c1` [Example 100, 2-(2,4-dimethylphenyl)-6-phenoxy-2,5-dihydro-4H-pyrazolo[3,4-d]pyrimidin-4-one], the inhibition at 10 µM in assay [1] is 100%. Besides, the pIC50 in assay [2] was less than 4.52.
For `CCOc1nc2nn(-c3c(C)ccc(C)c3F)cc2c(=O)[nH]1` [Example 101, 6-ethoxy-2-(2-fluoro-3,6-dimethylphenyl)-2,5-dihydro-4H-pyrazolo[3,4-d]pyrimidin-4-one], in that order: 95% and less than 4.52.
For `Cc1cc(Cl)ccc1-n1cc2c(=O)[nH]c(C3CCCN(C)C3)nc2n1` (stereo not drawn) [Example 102, 2-(4-chloro-2-methylphenyl)-6-(1-methylpiperidin-3-yl)-2,5-dihydro-4H-pyrazolo[3,4-d]pyrimidin-4-one], in that order: 97% and less than 4.52.
Regarding `CCOc1nc2nn(-c3c(F)cc(C4CC4)cc3F)cc2c(=O)[nH]1` [Example 103, 2-(4-cyclopropyl-2,6-difluorophenyl)-6-ethoxy-2,5-dihydro-4H-pyrazolo[3,4-d]pyrimidin-4-one], the inhibition at 0.3 µM in assay [1] is 97%. For the same compound, in assay [2], the negative logarithm of the IC50 (pIC50) is less than 4.52.
For `CCOc1nc2nn(-c3c(F)cc(OC(F)(F)F)cc3Br)cc2c(=O)[nH]1` [Example 104, 2-[2-bromo-6-fluoro-4-(trifluoromethoxy)phenyl]-6-ethoxy-2,5-dihydro-4H-pyrazolo[3,4-d]pyrimidin-4-one], in that order: 99% and less than 4.52.
Taken in the same sequence, the figures for `CCOc1nc2nn(-c3c(F)cc(C)cc3C3CC3)cc2c(=O)[nH]1` [Example 105, 2-(2-cyclopropyl-6-fluoro-4-methylphenyl)-6-ethoxy-2,5-dihydro-4H-pyrazolo[3,4-d]pyrimidin-4-one] were 99% and less than 4.52.
Taken in the same sequence, the figures for `CCOc1nc2nn(-c3c(C)cc(C)cc3C)cc2c(=O)[nH]1` [Example 106, 6-ethoxy-2-(2,4,6-trimethylphenyl)-2,5-dihydro-4H-pyrazolo[3,4-d]pyrimidin-4-one] were 97% and less than 4.52.
Take `CCOc1nc2nn(-c3c(F)cc(C4CC4)cc3OC(F)F)cc2c(=O)[nH]1` [Example 107, 2-[4-cyclopropyl-2-(difluoromethoxy)-6-fluorophenyl]-6-ethoxy-2,5-dihydro-4H-pyrazolo[3,4-d]pyrimidin-4-one]: the inhibition at 0.3 µM in assay [1] came to 99%. In assay [2], this compound gave a pIC50 of less than 4.52.
On to `CCOc1nc2nn(-c3c(F)cc(C)cc3OC(F)F)cc2c(=O)[nH]1` [Example 108], for which the inhibition at 0.3 µM in assay [1] was 98%. The pIC50 in assay [2] was less than 4.52.
Taken in the same sequence, the figures for `CCOc1nc2nn(-c3c(C)cc(OC(F)F)cc3F)cc2c(=O)[nH]1` [Example 109] were 99% and less than 4.52.
Taken in the same sequence, the figures for `CCOc1nc2nn(-c3c(F)cc(C4CC4)cc3C(F)F)cc2c(=O)[nH]1` [Example 110, 2-[4-cyclopropyl-2-(difluoromethyl)-6-fluorophenyl]-6-ethoxy-2,5-dihydro-4H-pyrazolo[3,4-d]pyrimidin-4-one] were 99% and less than 4.52.
As for `CCOc1nc2nn(-c3ccc(C4CC4)cc3F)c(C)c2c(=O)[nH]1` [Example 111, 2-(4-cyclopropyl-2-fluorophenyl)-6-ethoxy-3-methyl-2,5-dihydro-4H-pyrazolo[3,4-d]pyrimidin-4-one], in assay [1], the inhibition at 0.3 µM came to 95%. In assay [2], this compound showed a negative logarithm of the IC50 (pIC50) of less than 4.52.
For the compound `CCOc1nc2nn(-c3ccc(C)cc3F)cc2c(=O)[nH]1` [Example 113, 6-ethoxy-2-(2-fluoro-4-methylphenyl)-2,5-dihydro-4H-pyrazolo[3,4-d]pyrimidin-4-one], the inhibition at 0.3 µM in assay [1] was determined as 67%. This compound had a negative-log IC50 (pIC50) in assay [2] of less than 4.52.
For `CCOc1nc2nn(-c3c(F)cc(C4CC4)cc3Br)cc2c(=O)[nH]1` [Example 114, 2-(2-bromo-4-cyclopropyl-6-fluorophenyl)-6-ethoxy-2,5-dihydro-4H-pyrazolo[3,4-d]pyrimidin-4-one], in that order: 98% and less than 4.52.
For the compound `Cc1cc(C)c(-n2cc3c(=O)[nH]c(OCCCN(C)C)nc3n2)c(O)c1` [Example 115, 6-[3-(dimethylamino)propoxy]-2-(2-hydroxy-4,6-dimethylphenyl)-2,5-dihydro-4H-pyrazolo[3,4-d]pyrimidin-4-one], the inhibition at 0.3 µM in assay [1] came out at 99%. Also, in assay [2], the negative logarithm of the IC50 (pIC50) was less than 4.52.
For `CCOc1nc2nn(-c3c(O)cc(C)cc3OC(F)F)cc2c(=O)[nH]1` [Example 116, 2-[2-(difluoromethoxy)-6-hydroxy-4-methylphenyl]-6-ethoxy-2,5-dihydro-4H-pyrazolo[3,4-d]pyrimidin-4-one], in that order: 96% and less than 4.52.
